From US7795296B2, “Crystals of non-natural-type stereoisomer salt of monatin and use thereof” (Ajinomoto Co., Inc., priority 2001, dated 2010)
Where two headings read alike, the source gives them in different places. Blank lines part the entries; values can stand above or below the compound they belong to.

Key:
[1] = hydrochlorides, reported by K. Nakamura et al., cited from earlier work
[2] = system: panelists; assay: Intensity of sweet taste, tasted against a 5% aqueous sucrose standard solution; assay type: in vivo; conditions: for Sweetness Intensity / Degree of sweet taste / intensity of sweet taste: as compared with a 5% aqueous solution of sucrose; for Degree of sweet taste / intensity of sweet taste: salt crystals
Procedure: Intensity of sweet taste (sweetening potency; degree of sweet taste) of the crystals of each stereoisomer obtained can be determined by comparing with a 5% aqueous solution of sucrose, but a method for the determination of intensity of sweet taste is not limited thereto. “Sweet taste” intensity of each stereoisomer obtained was measured by the following method. A 0.05% aqueous solution of each stereoisomer was prepared and diluted to an appropriate extent to prepare an aqueous solution of a sample of a predetermined concentration. Separately, a 5% aqueous solution of sucrose was prepared and used as a standard solution. The diluted aqueous solution of the sample and the standard aqueous sucrose solution were tasted one after another and the sweetness rate was determined from the sample concentration where the intensities of sweetness were noted to be same. Seven panelists performed the evaluation.

[3] = Comparison of thermostability of the crystals (120° C., open vial, decomposed products by HPLC); assay type: physicochemical; conditions: area % to residual monatin
Procedure: Comparison of Thermostability of the Crystals.
Each 50 mg of the crystals and the amorphous solid prepared by the above-mentioned methods were placed in a 4-ml vial and preserved (kept) at the temperature of 120° C. At that time, the vial was made in an open state. Each 2 mg of the sample were taken out after retention time of 3 hours, 7 hours and 24 hours and the rate (ratio) of decomposed products were determined by means of HPLC (high-performance liquid chromatography).

[4] = samples crystallized and purified as a sodium salt
[5] = samples prepared by HPLC, purified by ion-exchange resin and freeze-dried as an ammonium salt

Compound: Cl.N[C@@H](C[C@](O)(Cc1c[nH]c2ccccc12)C(=O)O)C(=O)O
- Sweet taste, in words [1]: almost no sweet taste
- Sweet taste, in words ([1]; listed as synthetic (2S,4R) monatin substance): slightly sweet taste

Compound: N[C@H](CC(O)(Cc1c[nH]c2ccccc12)C(=O)O)C(=O)O (stereo partly drawn) [(2R, 4S)]
- Sweetness Intensity [2, 4]: ca. 1300
- Sweetness Intensity [2, 5]: ca. 800

Compound: N[C@@H](C[C@@](O)(Cc1c[nH]c2ccccc12)C(=O)O)C(=O)O [(2S, 4S), (2S,4S)-2-amino-4-carboxy-4-hydroxy-5-(3-indolyl)-pentanoic acid]
- Intensity of the sweet taste ([2]; Example 1 ammonium salts, amorphous solid, 5% aqueous sucrose standard, seven panelists): about 300 fold
- Sweetness Intensity [2, 4]: ca. 50
- Sweetness Intensity [2, 5]: ca. 300
- Intensity of sweet taste, comparison in words ([2]; comparison among the four stereoisomers and with reported data): far lower than the data which were reported already
- Degree of sweet taste / intensity of sweet taste [2]: about 50 fold

- Rate of Decomposed Product A (%) ([3]; retention time 3 hours): 1.9%
- Rate of Decomposed Product B (%) ([3]; retention time 3 hours): 1.2%
- Rate of Decomposed Product A (%) ([3]; retention time 7 hours): 3.8%
- Rate of Decomposed Product B (%) ([3]; retention time 7 hours): 2.3%
- Rate of Decomposed Product A (%) ([3]; retention time 24 hours): 11.8%
- Rate of Decomposed Product B (%) ([3]; retention time 24 hours): 7.6%
Compound: N.N[C@H](C[C@](O)(Cc1c[nH]c2ccccc12)C(=O)O)C(=O)O [Ammonium salt crystals]

Compound: NC(CC(O)(Cc1c[nH]c2ccccc12)C(=O)O)C(=O)[O-].[Na+] (centres unmarked) [Example 11]
- Degree of sweet taste / intensity of sweet taste [2]: about 1300 fold

- Rate of Decomposed Product A (%) ([3]; retention time 3 hours): 2.0%
- Rate of Decomposed Product B (%) ([3]; retention time 3 hours): 2.1%
- Rate of Decomposed Product A (%) ([3]; retention time 7 hours): 3.8%
- Rate of Decomposed Product B (%) ([3]; retention time 7 hours): 4.3%
- Rate of Decomposed Product A (%) ([3]; retention time 24 hours): 5.3%
- Rate of Decomposed Product B (%) ([3]; retention time 24 hours): 11.7%
Compound: N[C@H](CC(O)(Cc1c[nH]c2ccccc12)C(=O)O)C(=O)O (some centres unmarked) [Free substance crystals]

Compound: Cl.N[C@@H](C[C@@](O)(Cc1c[nH]c2ccccc12)C(=O)O)C(=O)O [synthetic (2S,4S) monatin substance]
- Sweet taste, in words [1]: sweet potency equivalent to that of the a natural specimen of monatin
